Test results reported in US7211576B2, “Diaminothiazoles” (Hoffmann-La Roche Inc., priority 2004, dated 2007).

Assays:
human cyclin B-CDK1 = human cyclin B-CDK1 (Homo sapiens, UniProt P06493); test: FlashPlate kinase assay, cyclin B-CDK1; assay type: biochemical; settings: Rb protein substrate, 1 μM ATP, 33P-ATP, 30 minutes room temperature
[1] = test system: HCT116, a colorectal carcinoma cell line; test: Tetrazolium dye (MTT) proliferation assay; assay type: cell-based; settings: Homo sapiens, HCT-116; HCT116 cells, inhibition of cell proliferation
Method: Proliferation was evaluated by the tetrazolium dye assay according to the procedure of Denizot and Lang (Denizot, F. and Lang, R. J Immunol Methods 1986, 89, 271–277). The cell line used was HCT116, a colorectal carcinoma cell line obtained from the American Type Cell Culture Collection (ATCC; Rockville, Md.). The cells were grown in McCoy's 5A medium supplemented with 10% FCS and L-glutamine.
Cells were plated at the appropriate seeding density to give logarithmic growth over the course of the assay in a 96-well tissue culture plate. Plates were incubated overnight at 37° C. in a humidified incubator with 5% CO2. The next day, test compounds were serially diluted to four times the final concentration in the appropriate medium containing 1.2% DMSO. One-fourth final volume of each dilution was added in duplicate to the plates containing cells. The same volume of 1.2% DMSO in medium was added to a row of “control wells” such that the final concentration of DMSO in each well was 0.3%. Wells to which no cells were added served as the “blank.” Wells to which no inhibitor was added served as “no inhibitor control.” The plates were) returned to the incubator, and at set time points (determined by their growth curves) plates were analyzed as described below.
3-(4,5-dimethylthiazole-2-yl)-2,5-diphenyl-2H-tetrazolium bromide (thiazolyl blue; MTT; Sigma) was added to each well to yield a final concentration of 1 mg/ml. Plates were returned to the incubator for 2.5–3 hours at 37° C. The MTT-containing medium was removed and the resulting formazan metabolite was solubilized in 100% ethanol with shaking for 15 minutes at room temperature. Absorbance readings were taken in a microtiter plate reader (Dynatech and Molecular Devices plate readers were used interchangeably) at a wavelength of 570 nm with a 650 nm reference. Percent inhibition (% INH) is calculated by subtracting the absorbance of the blank well from all wells, then subtracting the ratio of the average absorbance of each test duplicate (SAVE) by the average of the controls (CAVE) from 1.00. The final number is then multiplied by 100 (% INH=(1.00−SAVE/CAVE)×100). The concentration at which 50% inhibition of cell proliferation is obtained (the IC50) is determined from the linear regression of a plot of the logarithm of the concentration versus percent inhibition.

human cyclin E-CDK2 = human cyclin E-CDK2 (Homo sapiens, UniProt P24941); test: FlashPlate kinase assay, cyclin E-CDK2; assay type: biochemical; settings: Rb protein substrate, 1 μM ATP, 33P-ATP, 30 minutes room temperature
Method: To determine inhibition of Cdk4, Cdk2 and Cdk1 activity, kinase assays were conducted using FlashPlate™ assays (NEN™-Life Science Products). FlashPlate assays were performed using recombinant human cyclin B-CDK1, human cyclin E-CDK2 or human cyclin D1-CDK4 complexes. GST-cyclinE (GST-cycE), CDK2, GST-cyclinB (GST-cycB), CDK1, GST-CDK4 and cyclin D1 (cycD1) cDNA clones in baculovirus vectors were provided by Dr. W. Harper at the Baylor College of Medicine, Houston, Tex. Proteins were co-expressed in High Five™ insect cells and the complex was purified on glutathione Sepharose resin (Pharmacia, Piscataway, N.J.) as previously described (Harper, J. W. et al. Cell 1993, 75, 805–816). A 6×-Histidine tagged truncated form of retinoblastoma (Rb) protein (amino acid 386–928) was used as the substrate for the cycD1-CDK4, cycB-CDK1 and the cycE-CDK2 assays (the expression plasmid was provided by Dr. Veronica Sullivan, Department of Molecular Virology, Roche Research Centre, Welwyn Garden City, United Kingdom). The Rb protein is a natural substrate for phosphorylation by CDK4, CDK2 and CDK1 (see Herwig and Strauss Eur. J. Biochem. Vol. 246 (1997) pp. 581–601 and the references cited therein).
The expression of the 62Kd protein was under the control of an IPTG inducible promoter in an M15 E. coli strain. Cells were lysed by sonication and purification was carried out by binding lysates at pH 8.0 to a Ni-chelated agarose column pretreated with 1 mM imidazole. The resin was then washed several times with incrementally decreasing pH buffers to pH 6.0, and eluted with 500 mM imidazole. Eluted protein was dialysed against 20 mM HEPES pH 7.5, 30% glycerol, 200 mM NaCl, and 1 mM DTT. Purified Rb fusion protein stocks were quantitated for protein concentration, aliquoted, and stored at −70° C.
For all three kinase assays reported herein, 96-well FlashPlates were coated with Rb protein at 10 μg/ml, using 100 μl per well. Plates were incubated at 4° C. overnight or at room temperature for 3 hours on a shaker. To control for nonspecific phosphorylation, one row of wells was coated with 100 μl/well coating buffer (20 mM HEPES, 0.2 M NaCl). Plates were then washed twice with wash buffer (0.01% Tween 20 in phosphate-buffered saline). Compounds to be tested (“test compounds”) were added to the wells at 5× final concentration. Reactions were initiated by immediate addition of 40 μl reaction mix (25 mM HEPES, 20 mM MgCl2, 0.002% Tween 20, 2 mM DTT, 1 μM ATP, 4 nM ^33P-ATP) and a sufficient amount of enzyme to give counts that were at least 10-fold above background. Plates were incubated at room temperature on a shaker for 30 minutes. Plates were washed four times with the wash buffer, sealed, and counted on the TopCount scintillation counter (Packard Instrument Co., Downers Grove, Ill.]. The percent inhibition of Rb phosphorylation, which is a measure of the inhibition of CDK activity, was determined according to the following formula:
[formula] where “test compound” refers to the average counts per minute of the test duplicates, “nonspecific” refers to the average counts per minute when no CyclinD/Cdk4, etc., was added, and “total” refers to the average counts per minute when no compound was added. The IC50 value is the concentration of test compound that reduces by 50% the protein-kinase induced incorporation of the radiolabel under the test conditions described.

human cyclin D1-CDK4 = human cyclin D1-CDK4 (Homo sapiens, UniProt P11802); test: FlashPlate kinase assay, cyclin D1-CDK4; assay type: biochemical; settings: Rb protein substrate, 1 μM ATP, 33P-ATP, 30 minutes room temperature; read-out: CDK4 IC50
Chain of human cyclin D1-CDK4 (P11802 whole entry): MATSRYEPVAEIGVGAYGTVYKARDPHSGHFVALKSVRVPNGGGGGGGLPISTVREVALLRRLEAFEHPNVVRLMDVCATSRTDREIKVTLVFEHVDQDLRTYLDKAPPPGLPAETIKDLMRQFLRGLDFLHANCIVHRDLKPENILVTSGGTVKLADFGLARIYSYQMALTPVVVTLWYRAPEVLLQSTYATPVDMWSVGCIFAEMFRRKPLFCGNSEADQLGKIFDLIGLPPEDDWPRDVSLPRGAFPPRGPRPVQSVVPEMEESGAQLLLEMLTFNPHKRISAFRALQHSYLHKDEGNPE
Chain of human cyclin D1-CDK4 (P24385 whole entry partner): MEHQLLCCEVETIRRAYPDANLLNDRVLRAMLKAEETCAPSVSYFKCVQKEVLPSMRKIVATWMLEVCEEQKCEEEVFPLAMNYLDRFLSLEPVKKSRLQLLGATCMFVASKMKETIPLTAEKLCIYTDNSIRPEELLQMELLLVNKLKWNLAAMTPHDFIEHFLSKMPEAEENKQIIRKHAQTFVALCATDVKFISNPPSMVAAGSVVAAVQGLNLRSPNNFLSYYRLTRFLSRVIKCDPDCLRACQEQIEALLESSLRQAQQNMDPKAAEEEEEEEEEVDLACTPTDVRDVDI

Chain of human cyclin B-CDK1 (P06493 whole entry): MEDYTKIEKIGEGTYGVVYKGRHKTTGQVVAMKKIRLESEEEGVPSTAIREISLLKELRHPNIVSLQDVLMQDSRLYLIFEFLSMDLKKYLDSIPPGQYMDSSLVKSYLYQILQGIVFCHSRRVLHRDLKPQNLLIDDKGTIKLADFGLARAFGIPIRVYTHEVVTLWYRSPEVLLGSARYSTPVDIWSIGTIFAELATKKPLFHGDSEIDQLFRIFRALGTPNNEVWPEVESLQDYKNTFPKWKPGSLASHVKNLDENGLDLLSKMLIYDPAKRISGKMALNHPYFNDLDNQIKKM
Chain of human cyclin B-CDK1 (P14635 whole entry partner): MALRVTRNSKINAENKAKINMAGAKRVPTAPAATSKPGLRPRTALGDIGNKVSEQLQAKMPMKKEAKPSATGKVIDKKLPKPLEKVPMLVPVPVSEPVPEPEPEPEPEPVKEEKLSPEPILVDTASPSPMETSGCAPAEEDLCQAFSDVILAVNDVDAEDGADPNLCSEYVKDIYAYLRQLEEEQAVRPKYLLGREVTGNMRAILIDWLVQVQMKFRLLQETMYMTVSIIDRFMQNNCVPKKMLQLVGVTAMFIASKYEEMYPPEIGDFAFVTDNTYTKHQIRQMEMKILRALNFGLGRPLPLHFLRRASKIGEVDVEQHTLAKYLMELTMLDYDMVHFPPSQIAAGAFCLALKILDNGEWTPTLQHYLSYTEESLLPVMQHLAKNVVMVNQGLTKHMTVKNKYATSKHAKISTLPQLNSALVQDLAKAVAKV

IC50 (human cyclin B-CDK1) | IC50 [1] | IC50 (human cyclin E-CDK2) | IC50 (human cyclin D1-CDK4) | Structure (SMILES)
0.216 µM | 2 µM | 2.89 µM | 0.017 µM | Nc1nc(Nc2ccc(N3CCC(N4CCCC4)CC3)cc2)sc1C(=O)c1ccc2c(c1)OCO2 [Example 25, {4-Amino-2-[4-(4-pyrrolidin-1-yl-piperidin-1-yl)-phenylamino]-thiazol-5-yl}-benzo[1,3]dioxol-5-yl-methanone]
1.06 µM | 2.8 µM | 4.25 µM | 0.005 µM | Nc1nc(Nc2ccc(N3CCC(N4CCCC4)CC3)cc2)sc1C(=O)c1ccc2c(c1)OCCO2 [Example 26, {4-Amino-2-[4-(4-pyrrolidin-1-yl-piperidin-1-yl)-phenylamino]-thiazol-5-yl}-(2,3-dihydro-benzo[1,4]dioxin-6-yl)-methanone]
1.06 µM | 1.85 µM | 3.49 µM | 0.017 µM | COc1cccc(C(=O)c2sc(Nc3ccc(N4CCC(N5CCCC5)CC4)cc3)nc2N)c1 [Example 27]
0.176 µM | 0.84 µM | 0.545 µM | 0.014 µM | Nc1nc(Nc2ccc(N3CCC(N4CCCCC4)CC3)cc2)sc1C(=O)c1cccc(F)c1 [Example 30, [4-Amino-2-(4-[1,4′]bipiperidinyl-1′-yl-phenylamino)-thiazol-5-yl]-(3-fluoro-phenyl)-methanone]
1.72 µM | 3.29 µM | 4.16 µM | 0.028 µM | COc1ccc(C(=O)c2sc(Nc3ccc(N4CCC(N5CCCCC5)CC4)cc3)nc2N)cc1F [Example 31, [4-Amino-2-(4-[1,4′]bipiperidinyl-1′-yl-phenylamino)-thiazol-5-yl]-(3-fluoro-4-methoxy-phenyl)-methanone]
1.91 µM | 6.64 µM | 5.74 µM | 0.029 µM | Nc1nc(Nc2ccc(N3CCC(N4CCCCC4)CC3)cc2)sc1C(=O)c1ccc2c(c1)OCO2 [Example 32, [4-Amino-2-(4-[1,4′]bipiperidinyl-1′-yl-phenylamino)-thiazol-5-yl]-benzo[1,3]dioxol-5-yl-methanone]
0.95 µM | 1.68 µM | 4.95 µM | 0.009 µM | Nc1nc(Nc2ccc(N3CCC(N4CCCCC4)CC3)cc2)sc1C(=O)c1ccc2c(c1)OCCO2 [Example 33, [4-Amino-2-(4-[1,4′]bipiperidinyl-1′-yl-phenylamino)-thiazol-5-yl]-(2,3-dihydro-benzo[1,4]dioxin-6-yl)-methanone]
1.68 µM | 0.008 µM | 0.952 µM | 3.64 µM | COc1cccc(C(=O)c2sc(Nc3ccc(N4CCC(N5CCCCC5)CC4)cc3)nc2N)c1 [Example 34, [4-Amino-2-(4-[1,4′]bipiperidinyl-1′-yl-phenylamino)-thiazol-5-yl]-(3-methoxy-phenyl)-methanone]
0.74 µM | 0.018 µM | 0.12 µM | 1.09 µM | Nc1nc(Nc2ccc(N3CCC(N4CCCC(O)C4)CC3)cc2)sc1C(=O)c1cccc(F)c1 (stereo not shown) [Example 35, {4-Amino-2-[4-(3-hydroxy-[1,4′]bipiperidinyl-1′-yl)-phenylamino]-thiazol-5-yl}-(3-fluoro-phenyl)-methanone]
1.73 µM | 0.009 µM | 3 µM | 3.63 µM | COc1ccc(C(=O)c2sc(Nc3ccc(N4CCC(N5CCCC(O)C5)CC4)cc3)nc2N)cc1F (stereo not shown) [Example 36, {4-Amino-2-[4-(3-hydroxy-[1,4′]bipiperidinyl-1′-yl)-phenylamino]-thiazol-5-yl}-(3-fluoro-4-methoxy-phenyl)-methanone]
1.63 µM | 0.1 µM | 0.52 µM | 3.52 µM | Nc1nc(Nc2ccc(N3CCC(N4CCCC(O)C4)CC3)cc2)sc1C(=O)c1ccc2c(c1)OCO2 (stereo not shown) [Example 37, {4-Amino-2-[4-(3-hydroxy-[1,4′]bipiperidinyl-1′-yl)-phenylamino]-thiazol-5-yl}-benzo[1,3]dioxol-5-yl-methanone]
0.64 µM | 9.48 µM | 5.11 µM | 0.052 µM | Nc1nc(Nc2ccc(N3CCC(N4CCCC(O)C4)CC3)cc2)sc1C(=O)c1ccc(O)cc1 (stereo not shown) [Example 40, {4-Amino-2-[4-(3-hydroxy-[1,4′]bipiperidinyl-1′-yl)-phenylamino]-thiazol-5-yl}-(4-hydroxy-phenyl)-methanone]
0.268 µM | 1.41 µM | 0.888 µM | 0.002 µM | CN(C)C1CCN(c2ccc(Nc3nc(N)c(C(=O)c4cccc(F)c4)s3)cc2)CC1 [Example 41, {4-Amino-2-[4-(4-dimethylamino-piperidin-1-yl)-phenylamino]-thiazol-5-yl}-(3-fluoro-phenyl)-methanone]
0.5 µM | 1.61 µM | 3.5 µM | 0.007 µM | CN(C)C1CCN(c2ccc(Nc3nc(N)c(C(=O)c4ccc5c(c4)OCO5)s3)cc2)CC1 [Example 43, {4-Amino-2-[4-(4-dimethylamino-piperidin-1-yl)-phenylamino]-thiazol-5-yl}-benzo[1,3]dioxol-5-yl-methanone]
1.25 µM | 1.72 µM | 5.13 µM | 0.016 µM | CN(C)C1CCN(c2ccc(Nc3nc(N)c(C(=O)c4ccc5c(c4)OCCO5)s3)cc2)CC1 [Example 44, {4-Amino-2-[4-(4-dimethylamino-piperidin-1-yl)-phenylamino]-thiazol-5-yl}-(2,3-dihydro-benzo[1,4]dioxin-6-yl)-methanone]
2.44 µM | 2.46 µM | 5.16 µM | 0.005 µM | COc1cccc(C(=O)c2sc(Nc3ccc(N4CCC(N(C)C)CC4)cc3)nc2N)c1 [Example 45, {4-Amino-2-[4-(4-dimethylamino-piperidin-1-yl)-phenylamino]-thiazol-5-yl}-(3-methoxy-phenyl)-methanone]
